Experimental data from patent US6869968B1, “2-(3H)-oxazolone derivatives and their use as COX-2 inhibitors” (Allmirall Prodesfarma S.A., priority 1996, dated 2005).

Experiments:
Cyclooxygenase-1 (COX-1) = biological target: T1, Cyclooxygenase-1 (COX-1) (Homo sapiens, UniProt P23219); test: Inhibition of cyclooxygenase-1 (COX-1) activity in human platelets (thromboxane B2 ELISA); assay type: cell-based; conditions: 50 μM arachidonic acid, mean of three independent experiments, read-out: COX-1 (μM), results expressed as IC50 values
T1 construct: Platelets were isolated from peripheral human blood obtained from healthy donors; endogenous in cells; host or cells: human platelets from peripheral blood of healthy donors
Description: (§1) For the whole-cell COX-1 and COX-2 assays, stock solutions (10^−3M) of the drugs were dissolved in 50% dimethylsulphoxide, and further dilutions were done with medium.
Inhibition of Cyclooxygenase-1 (COX-1) Activity in Human Platelets
The blood was anticoagulated with 2 mg/ml sodium EDTA and centrifuged at 180 g for 10 min. at room temperature to obtain platelet-rich plasma. The platelet-rich plasma was centrifuged at 2000 g for 20 min. at 4° C. to obtain a platelet pellet. Cells were washed twice with PBS without […] and resuspended to 5×10^7 cells with Hank's balanced salt solution (HBSS). Platelets (10^7) were preincubated with the drugs for 15 min. at 37° C. and incubations were continued for a further 15 min. in the presence of 50 μM arachidonic acid. The production of tromboxane B2 in response to arachidonic acid was measured in the supernatants using a solid-phase immunoassay (ELISA). The results are expressed as the mean of the IC50 values obtained from three independent experiments.
(§2) For the whole-cell COX-1 and COX-2 assays stock solutions (10^−3 M) of the drugs wer dissolved in 50% dimethylsulphoxide, and further dilutions were done with medium.

Cyclooxygenase-2 (COX-2) = biological target: T2, Cyclooxygenase-2 (COX-2) (Homo sapiens, UniProt P35354); test: Inhibition of cyclooxygenase-2 (COX-2) activity in HUV-EC-C cell line (prostaglandin E2 ELISA); assay type: cell-based; conditions: for IC50: PMA/TPA-induced HUV-EC-C cells, 50 μM arachidonic acid, mean of three independent experiments, read-out: COX-2 (μM), results expressed as IC50 values; for Ratio COX-1:COX-2: ratio of IC50 COX-1 (platelets) to IC50 COX-2 (HUV-EC-C)
T2 construct: Quiescent HUV-EC-C cells were treated with 50 nM TPA for 6 h at 37° C. to induce the COX-2 isoenzyme; endogenous in cells; host or cells: HUV-EC-C human endothelial cell line, passage 19-27, induced with 50 nM TPA/PMA
T2 sequence (P35354 18-604): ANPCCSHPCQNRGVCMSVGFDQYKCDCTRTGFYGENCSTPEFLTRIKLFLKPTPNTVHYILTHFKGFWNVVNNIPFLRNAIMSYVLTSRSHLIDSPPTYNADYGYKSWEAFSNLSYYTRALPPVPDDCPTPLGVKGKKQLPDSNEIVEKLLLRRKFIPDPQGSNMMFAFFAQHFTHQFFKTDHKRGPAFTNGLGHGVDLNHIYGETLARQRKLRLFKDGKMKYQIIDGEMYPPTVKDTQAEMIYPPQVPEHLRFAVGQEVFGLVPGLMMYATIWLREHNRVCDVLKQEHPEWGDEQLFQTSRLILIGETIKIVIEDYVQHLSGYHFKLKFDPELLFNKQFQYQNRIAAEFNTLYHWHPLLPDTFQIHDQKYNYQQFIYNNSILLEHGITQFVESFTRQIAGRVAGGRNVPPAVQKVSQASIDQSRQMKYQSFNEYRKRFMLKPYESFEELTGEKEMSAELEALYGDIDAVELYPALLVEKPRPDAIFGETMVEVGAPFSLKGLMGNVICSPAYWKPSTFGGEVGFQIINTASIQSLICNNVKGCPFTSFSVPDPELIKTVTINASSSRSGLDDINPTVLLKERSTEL
Description: as §1
Inhibition of Cyclooxygenase-2 (COX-2) Activity in HUV-EC-C Cell Line
HUV-EC-C cells were grown on Ham's F12K medium containing 10% fetal bovine serum, 100 μg/ml heparin and 50 μg/ml Endothelial Cell Growth Supplement (ECGS). Experiments were performed with HUV-EC-C passage 19-27. Cells (2×10^4) were seeded onto 96-well plates and made quiescent by removing the growth factor for 48 h before the initiation of the experiments. Quiescent HUV-EC-C cells were treated with 50 nM TPA for 6 h at 37° C. to induce the COX-2 isoenzyme. The cultured medium was then changed and cells were incubated with drugs for 30 min. at 37° C. Arachidonic acid (50 μM) was then added, and the cells were incubated for a further 30 min. The production of prostaglandine E2 in response to arachidonic acid was measured in the supernatants using a solid-phase immunoassay (ELISA). The results are expressed as the mean of the IC50 values obtained from three independent experiments.
as §2

[1] = test system: adjuvant arthritis (Mycobacterium tuberculosis in paraffin oil, hind paw); test: Anti-inflammatory activity (adjuvant arthritis), hind paw volume; assay type: in vivo, Male Wistar rats; conditions: paw volume on day 21
Description: Anti-Inflammatory Activity (Adjuvant Arthritis)
Male Wistar rats weighing 175-200 g with free access to food and water were used. On day 0, the animals received an intraplantar injection of a suspension of Mycobacterium tuberculosis in paraffin oil (0.5 mg/rat) on the left hind paw. A group of 8 nonarthritic control rats were injected with paraffin oil alone. On days 11 and 14 after induction of arthritis, the volume of the hind paw of each rat was measured using a water plehysmograph. Animals whose paw volumes increased during that time were selected. Rats were distributed into groups of 8 having equal mean paw volumes and an approximately equal standard deviation.
Test compounds were administered p.o. once daily for 7 days (days 14-20). Nonarthritic and arthritic control rats received vehicle alone for 7 days. The hind paw volumes were measured 20 h after the last dose (on day 21). The body weight was determined every second day.
The results are expressed as the percentage of inhibition of inflammation (paw volume) for each treatment group, considering both the arthritic and nonarthritic vehicle controls. The ANOVA test was used for statistical studies.
(§3) For the in vivo assays all drugs were administered in vehicle (0.1% Tween 80+0.5% methylcellulose in distilled water) in a volume of 5 ml/kg.

glandular stomach = test: Ulcerogenic activity (gastric lesion index); assay type: in vivo, Male Wistar rat; conditions: oral route, fasted rats, sacrificed 6 hours after dosage
Description: Animals: Male Wistar (Interfauna, U.K., Ltd.) weighing about 120-150 g were used. They were maintained on a 12:12 hour light-dark cycle (lights on at 7:00 a.m.) at room temperature (22±1° C.). The animals were fasted for 18 h prior to the experiment with free access to drinking water.
Procedure: Experiments were performed from 9 to 17 h. The compounds were administered by-the oral route and the animals were sacrificed 6 hours after drugs dosage. The stomach of each rat was removed, opened and gently washed. The macroscopic severity of the erosions was assessed using a parametric scale (Cosen and Mazure), evaluating the number and size of the ulcers in the glandular stomach. Thus, each stomach was classified with an index lesion and compared with the gastrolesivity induced by ketorolac 100 mg/kg p.o., used as a positive standard. The treatments were randomized in each experiment.
as §3

[2] = 1 mg/kg p.o. once daily for 7 days (days 14-20)

T1 sequence (P23219 24-599): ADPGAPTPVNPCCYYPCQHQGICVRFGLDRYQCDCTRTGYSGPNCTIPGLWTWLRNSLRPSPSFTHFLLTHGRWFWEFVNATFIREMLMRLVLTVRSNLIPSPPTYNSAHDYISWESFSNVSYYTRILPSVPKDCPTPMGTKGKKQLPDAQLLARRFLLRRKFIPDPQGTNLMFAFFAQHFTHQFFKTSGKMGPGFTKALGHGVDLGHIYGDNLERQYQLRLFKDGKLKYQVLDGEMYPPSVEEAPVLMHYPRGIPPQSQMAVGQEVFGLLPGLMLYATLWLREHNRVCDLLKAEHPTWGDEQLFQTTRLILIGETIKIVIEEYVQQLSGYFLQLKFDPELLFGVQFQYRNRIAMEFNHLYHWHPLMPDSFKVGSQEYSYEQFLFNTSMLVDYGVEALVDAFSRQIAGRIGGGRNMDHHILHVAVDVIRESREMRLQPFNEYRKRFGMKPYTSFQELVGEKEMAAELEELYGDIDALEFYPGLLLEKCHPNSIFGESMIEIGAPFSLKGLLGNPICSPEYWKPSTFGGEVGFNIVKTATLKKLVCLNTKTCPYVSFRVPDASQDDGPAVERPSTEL

Structure (SMILES) | IC50 (Cyclooxygenase-1 (COX-1)) [µM] | IC50 (Cyclooxygenase-2 (COX-2)) [µM] | Ratio COX-1:COX-2 (Cyclooxygenase-2 (COX-2)) | % Inhibition (dose, mg/kg) ([1]; 3 mg/kg p.o. once daily for 7 days (days 14-20)) | UD50 (glandular stomach) [mg/kg] | melting point [°C] | % Inhibition (dose, mg/kg) [1, 2]
CS(=O)(=O)c1ccc(-c2coc(=O)n2-c2ccc(F)cc2)cc1 [Compound 6, 3-(4-fluorophenyl)-4-(4-methylsulfonylphenyl)-2-(3H)-oxazolone] | 127 | 3.2 | 39.6 | 52 (3) % | >100 |  | 
CS(=O)(=O)c1ccc(-c2coc(=O)n2-c2ccc(Br)cc2)cc1 [Compound 9, 3-(4-bromophenyl)-4-(4-methylsulfonylphenyl)-2-(3H)-oxazolone] | > 100 | 0.11 | >909 |  |  | 217 to 219 | 
NS(=O)(=O)c1ccc(-c2coc(=O)n2-c2ccc(F)cc2)cc1 [Compound 18, 3-(4-fluorophenyl)-4-(4-aminosulfonylphenyl)-2-(3H)-oxazolone] | 1.5 | 0.53 | 2.8 |  |  |  | 63 (1) %
NS(=O)(=O)c1ccc(-c2coc(=O)n2-c2ccc(Cl)c(Cl)c2)cc1 [Compound 20, 3-(3,4-dichlorophenyl)-4-(4-aminosulphonylphenyl)-2-(3H)-oxazolone] | 3.5 | 0.06 | 58.3 |  | >100 |  | 67 (1) %
NS(=O)(=O)c1ccc(-c2coc(=O)n2-c2ccccc2F)cc1 [Compound 26, 3-(2-fluorophenyl)-4-(4-aminosulphonylphenyl)-2-(3H)-oxazolone] | 22.6 | 0.0096 | 2354 |  | >100 |  | 65 (1) %
NS(=O)(=O)c1ccc(-c2coc(=O)n2-c2ccc(F)cc2F)cc1 [Compound 27, 3-(2,4-difluorophenyl)-4-(4-aminosulphonylphenyl)-2-(3H)-oxazolone] | 8.9 | 0.1 | 89 |  | >100 |  | 64 (1) %
COc1ccc2c(c1)c(CC(=O)O)c(C)n2C(=O)c1ccc(Cl)cc1 [Indomethacin, 1-(4-chlorobenzoyl)-5-methoxy-2-methylindole-3-acetic acid, reference compound] |  |  |  |  | 17 |  | 64 (1) %
